Reference: the supplement of paper PMC6045584
± gives the standard deviation of the averaged measurements.

What was measured:
[1] = compound: COc1cc2c(Oc3ccc(NC(=O)C4(C(=O)Nc5ccc(F)cc5)CC4)cc3F)ccnc2cc1OCCCN1CCOCC1 [FORETINIB]; assay: surviving fraction relative to DMSO-only wells; higher = less growth inhibition; details: exposure time: 5 days
Method in brief: (§1)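 A line counted only if its three screens reached replicate Pearson r >0.7 and median Z' >0.3. Tumour cells in log phase were seeded at 250–500 per well in 384-well plates and, after 24 hours, kept in continuous contact with inhibitors at 0.5, 1, 5, 10, 50, 100, 500 and 1000 nM for five days. Surviving fraction was taken from CellTiter-Glo luminescence relative to the median of DMSO-only wells.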

[2] = compound: Cc1nc(Nc2ncc(C(=O)Nc3c(C)cccc3Cl)s2)cc(N2CCN(CCO)CC2)n1 [DASATINIB]; assay: as above; details: exposure time: 5 days
Method in brief: as §1

Row | Test System | surviving fraction ([1]; 0.5 nM) | surviving fraction ([1]; 1 nM) | surviving fraction ([1]; 5 nM) | surviving fraction ([1]; 10 nM) | surviving fraction ([1]; 50 nM) | surviving fraction ([1]; 100 nM) | surviving fraction ([1]; 500 nM) | surviving fraction ([1]; 1000 nM) | surviving fraction ([2]; 0.5 nM) | surviving fraction ([2]; 1 nM) | surviving fraction ([2]; 5 nM) | surviving fraction ([2]; 10 nM) | surviving fraction ([2]; 50 nM) | surviving fraction ([2]; 100 nM) | surviving fraction ([2]; 500 nM) | surviving fraction ([2]; 1000 nM)
1 | HUO3N1 BONE | 1 ± 0.035 | 0.992 ± 0.079 | 1.06 ± 0.059 | 1.01 ± 0.039 | 0.903 ± 0.04 | 0.819 ± 0.006 | 0.619 ± 0.02 | 0.412 ± 0.025 | 0.8227 ± 0.0049 | 0.747 ± 0.029 | 0.568 ± 0.083 | 0.457 ± 0.032 | 0.331 ± 0.0068 | 0.2553 ± 0.0021 | 0.232 ± 0.013 | 0.215 ± 0.0027
2 | JIMT1 BREAST | 0.991 ± 0.015 | 0.978 ± 0.032 | 1.03 ± 0.058 | 1.03 ± 0.031 | 1 ± 0.041 | 1.01 ± 0.11 | 0.62 ± 0.033 | 0.484 ± 0.087 | 0.859 ± 0.034 | 0.844 ± 0.033 | 0.802 ± 0.034 | 0.68 ± 0.024 | 0.394 ± 0.041 | 0.182 ± 0.018 | 0.0683 ± 0.012 | 0.0518 ± 0.0019
3 | JURKAT HAEMATOPOIETIC AND LYMPHOID TISSUE | 1 ± 0.034 | 0.979 ± 0.036 | 1.02 ± 0.031 | 0.971 ± 0.023 | 0.923 ± 0.019 | 0.976 ± 0.039 | 0.61 ± 0.021 | 0.601 ± 0.03 | 1.033 ± 0.0046 | 0.984 ± 0.034 | 0.927 ± 0.011 | 0.892 ± 0.011 | 0.886 ± 0.043 | 0.785 ± 0.024 | 0.614 ± 0.028 | 0.432 ± 0.016
4 | KPD BONE | 1.05 ± 0.059 | 1.03 ± 0.029 | 1.09 ± 0.03 | 1.11 ± 0.026 | 1.07 ± 0.04 | 1.04 ± 0.018 | 0.63 ± 0.037 | 0.303 ± 0.028 | 0.909 ± 0.063 | 0.851 ± 0.053 | 0.781 ± 0.044 | 0.73 ± 0.0072 | 0.579 ± 0.039 | 0.481 ± 0.03 | 0.39 ± 0.016 | 0.336 ± 0.025
5 | LM7 BONE | 1.02 ± 0.028 | 1.04 ± 0.06 | 1.05 ± 0.016 | 1.02 ± 0.011 | 0.997 ± 0.015 | 1.03 ± 0.058 | 0.725 ± 0.042 | 0.216 ± 0.013 | 0.732 ± 0.032 | 0.694 ± 0.031 | 0.616 ± 0.044 | 0.576 ± 0.028 | 0.443 ± 0.036 | 0.338 ± 0.014 | 0.206 ± 0.031 | 0.211 ± 0.008
6 | LNCAP PROSTATE | 1.04 ± 0.022 | 1.02 ± 0.046 | 0.968 ± 0.075 | 1.01 ± 0.1 | 0.997 ± 0.074 | 1.04 ± 0.039 | 0.261 ± 0.03 | 0.189 ± 0.028 | 1.14 ± 0.05 | 1.1 ± 0.082 | 1.03 ± 0.075 | 0.941 ± 0.12 | 0.678 ± 0.032 | 0.504 ± 0.053 | 0.572 ± 0.012 | 0.589 ± 0.076
7 | MCF7 BREAST | 0.938 ± 0.026 | 0.958 ± 0.056 | 0.972 ± 0.031 | 0.993 ± 0.057 | 0.908 ± 0.052 | 0.959 ± 0.0097 | 0.669 ± 0.055 | 0.701 ± 0.066 | 0.803 ± 0.048 | 0.798 ± 0.043 | 0.816 ± 0.035 | 0.795 ± 0.019 | 0.787 ± 0.051 | 0.741 ± 0.048 | 0.741 ± 0.028 | 0.739 ± 0.037
8 | MDAMB134 BREAST | 0.888 ± 0.12 | 1.41 ± 0.042 | 0.916 ± 0.06 | 1.37 ± 0.026 | 0.86 ± 0.16 | 1.17 ± 0.32 | 0.939 ± 0.14 | 0.886 ± 0.033 | 0.71 ± 0.023 | 0.687 ± 0.0057 | 0.531 ± 0.013 | 0.534 ± 0.096 | 0.704 ± 0.018 | 0.6445 ± 0.0035 | 0.635 ± 0.019 | 0.606 ± 0.0064
9 | MDAMB157 BREAST | 0.967 ± 0.045 | 0.987 ± 0.035 | 1.1 ± 0.095 | 0.975 ± 0.0044 | 0.971 ± 0.074 | 0.934 ± 0.081 | 0.537 ± 0.085 | 0.231 ± 0.02 | 0.954 ± 0.12 | 0.915 ± 0.021 | 0.775 ± 0.071 | 0.688 ± 0.074 | 0.438 ± 0.025 | 0.35 ± 0.031 | 0.238 ± 0.04 | 0.232 ± 0.038
10 | MDAMB231 BREAST | 0.974 ± 0.018 | 0.985 ± 0.013 | 0.998 ± 0.017 | 1 ± 0.03 | 0.971 ± 0.0077 | 0.9367 ± 0.0039 | 0.489 ± 0.0095 | 0.449 ± 0.0084 | 0.803 ± 0.011 | 0.794 ± 0.033 | 0.653 ± 0.022 | 0.571 ± 0.02 | 0.25 ± 0.0064 | 0.171 ± 0.0089 | 0.1411 ± 0.0013 | 0.153 ± 0.0031
11 | MDAMB361 BREAST | 0.794 ± 0.035 | 0.877 ± 0.15 | 0.803 ± 0.05 | 1.18 ± 0.11 | 0.9 ± 0.15 | 0.798 ± 0.021 | 0.918 ± 0.1 | 0.918 ± 0.073 | 0.678 ± 0.12 | 0.733 ± 0.081 | 0.668 ± 0.087 | 0.711 ± 0.16 | 0.799 ± 0.058 | 0.781 ± 0.039 | 0.75 ± 0.077 | 0.821 ± 0.13
